Target: T1, BCRP (Homo sapiens, UniProt Q9UNQ0)
T1 sequence (Q9UNQ0 1-655): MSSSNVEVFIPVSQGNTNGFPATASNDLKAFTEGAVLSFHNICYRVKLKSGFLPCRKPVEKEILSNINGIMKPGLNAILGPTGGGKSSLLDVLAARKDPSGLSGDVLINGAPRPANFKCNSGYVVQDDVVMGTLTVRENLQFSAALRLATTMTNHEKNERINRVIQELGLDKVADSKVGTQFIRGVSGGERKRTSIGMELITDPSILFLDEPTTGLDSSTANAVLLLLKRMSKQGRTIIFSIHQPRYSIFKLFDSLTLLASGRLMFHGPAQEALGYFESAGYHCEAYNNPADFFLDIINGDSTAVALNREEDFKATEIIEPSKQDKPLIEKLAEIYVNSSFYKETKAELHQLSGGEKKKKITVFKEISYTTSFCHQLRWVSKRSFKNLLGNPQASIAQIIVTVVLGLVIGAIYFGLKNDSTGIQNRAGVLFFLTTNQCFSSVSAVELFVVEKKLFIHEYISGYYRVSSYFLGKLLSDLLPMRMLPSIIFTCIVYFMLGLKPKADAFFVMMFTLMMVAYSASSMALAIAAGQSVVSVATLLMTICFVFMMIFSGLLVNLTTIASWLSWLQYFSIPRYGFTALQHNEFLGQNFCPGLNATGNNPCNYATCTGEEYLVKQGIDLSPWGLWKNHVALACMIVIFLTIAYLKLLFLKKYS
Experiment: Inhibition of BCRP-mediated lucifer yellow efflux in MDCK-BCRP cells
Assay type: cell-based
Details: for inhibitory effect on efflux of BCRP-mediated lucifer yellow: GA 50–5000 μg/L, PCA 10–1000 μg/L
Description: The human multidrug resistance protein (MDR)1-transfected Madin–Darby Canine Kidney (MDCK) cells, human breast cancer resistance protein (BCRP)-transfected MDCK cells, human organic anion transporter (OAT)1-transfected MDCK cells, OAT3-transfected second portion of proximal tubule (S2) cells, human organic cation transporter (OCT)2-transfected S2 cells, human organic anion transporting polypeptide (OATP)1B1-transfected human embryonic kidney 293 (HEK293) cells and their MOCK cells were kindly provided by Japan Fuji Biomedical Co., Ltd. (Osaka, Japan). Cells were cultured in DMEM supplemented with 10% FBS, 100 units/mL penicillin and 100 […]. All cells were incubated in a humidified atmosphere of 95% air and 5% CO2 at 37 °C. A solution of 0.25% trypsin-EDTA was used to detach the cells from flasks. Cell culture flasks, 24-well cell culture plates, and transwell polycarbonate inserts (12 mm diameter, 0.4 μm pore size) were purchased from Corning Co-star Corp. (Bedford, MA).
Inhibitory effects of GA and PCA on efflux transporters MDR1 and BCRP were investigated with the fluorogenic substrates rhodamine 123 (10 µM) and lucifer yellow (10 µM), respectively. The positive control inhibitors of MDR1 and BCRP were verapamil (10 µM) and cyclosporine (20 µM), respectively. The efflux experiments were adapted from previously reported methods with minor modifications (Reznicek et al. [2017]). Briefly, MDCK-MDR1, MDCK-BCRP and MDCK-mock cells were trypsinized and uniformly suspended in the designated volume of HBSS to provide a density of 4.0 × 10^5 cells/mL. For 0.5 mL of cell suspension and 1.5 mL of HBSS buffer medium were added in the apical and basolateral compartments of 12-well Transwell plates. After cultivation for 7 d, cells were washed twice and equilibrated for 30 min at 37 °C with the pre-warmed HBSS buffer. […] Fluorescence was measured at 485 nm (excitation) and 546 nm (emission) for rhodamine 123, and 425 nm (excitation) and 528 nm (emission) for Lucifer yellow. […]

SMILES	inhibitory effect on efflux of BCRP-mediated lucifer yellow	efflux of lucifer yellow compared with the control (relatively high concentrations)
O=C(O)c1cc(O)c(O)c(O)c1 [GA, gallic acid]	no significant inhibitory effect	
O=C(O)c1ccc(O)c(O)c1 [PCA, protocatechuic acid]	no significant inhibitory effect	significant increase

Reference: article PMC8216263 (Pharmaceutical Biology, 2021)
